Measurements from patent publication US20200181117A1, “SUBSTITUTED 3-HETEROARYLOXY-1H-PYRAZOLES AND SALTS THEREOF AND THEIR USE AS HERBICIDAL ACTIVE SUBSTANCES” (BAYER CROPSCIENCE AKTIENGESELLSCHAFT, priority 2017, published 2020).

Tests used:
Format in all cases: in vivo
Echinochloa crus-galli [1] = assay: Post-emergence herbicidal action; details: 1280 g/ha, rated visually after about 3 weeks vs untreated controls
Method: (§1) A. Post-Emergence Herbicidal Action and Crop Plant Compatibility Seeds of monocotyledonous and dicotyledonous weeds and crop plants were placed in sandy loam in plastic or wood-fiber pots, covered with soil and cultivated in a greenhouse under controlled growth conditions. 2 to 3 weeks after sowing, the test plants were treated at the one-leaf stage. The compounds of the invention, formulated in the form of wettable powders (WP) or as emulsion concentrates (EC), were then sprayed onto the green parts of the plants as aqueous suspension or emulsion with addition of 0.5% additive at a water application rate of 600 l/ha (converted). After the test plants had been kept in the greenhouse under optimum growth conditions for about 3 weeks, the activity of the preparations was rated visually in comparison to untreated controls. For example, 100% activity=the plants have died, 0% activity=like control plants. Tables B1 to B15 below show the effects of selected compounds of the general formula (I) according to Table I on various harmful plants and an application rate corresponding to 1280 g/ha, which were obtained by the experimental procedure mentioned above.

Abutilon theophrasti [2] = assay: Post-emergence herbicidal action; details: 1280 g/ha, rated visually after about 3 weeks vs untreated controls
Method: as §1

Polygonum convolvulus [3] = assay: Post-emergence herbicidal action; details: 1280 g/ha, rated visually after about 3 weeks vs untreated controls
Method: as §1

Viola tricolor [4] = assay: Post-emergence herbicidal action; details: 1280 g/ha, rated visually after about 3 weeks vs untreated controls
Method: as §1

Alopecurus myosuroides [5] = assay: Post-emergence herbicidal action; details: 1280 g/ha, rated visually after about 3 weeks vs untreated controls
Method: as §1

Stellaria media [6] = assay: Pre-emergence herbicidal action; details: 1280 g/ha, scored visually after about 3 weeks vs untreated controls
From the text: (§2) Pre-Emergence Herbicidal Action and Crop Plant Compatibility Seeds of monocotyledonous and dicotyledonous weed plants and crop plants were placed in plastic or wood fiber pots and covered with soil. The compounds of the invention, formulated in the form of wettable powders (WP) or as emulsion concentrates (EC), were then applied onto the surface of the covering soil as aqueous suspension or emulsion with addition of 0.5% additive at a water application rate of 600 l/ha (converted). After the treatment, the pots were placed in a greenhouse and kept under good growth conditions for the test plants. After about 3 weeks, the effect of the preparations was scored visually in comparison with untreated controls as percentages. For example, 100% activity=the plants have died, 0% activity=like control plants. Tables C1 to C14 below show the effects of selected compounds of the general formula (I) according to Table I on various harmful plants and an application rate corresponding to 1280 g/ha, which were obtained by the experimental procedure mentioned above.

Amaranthus retroflexus [7] = assay: Pre-emergence herbicidal action; details: 1280 g/ha, scored visually after about 3 weeks vs untreated controls
From the text: as §2

Echinochloa crus-galli [8] = assay: Pre-emergence herbicidal action; details: 1280 g/ha, scored visually after about 3 weeks vs untreated controls
From the text: as §2

Abutilon theophrasti [9] = assay: Pre-emergence herbicidal action; details: 1280 g/ha, scored visually after about 3 weeks vs untreated controls
From the text: as §2

Hordeum murinum = assay: Pre-emergence herbicidal action; details: 1280 g/ha, scored visually after about 3 weeks vs untreated controls
From the text: as §2

Setaria viridis [10] = assay: Pre-emergence herbicidal action; details: 1280 g/ha, scored visually after about 3 weeks vs untreated controls
From the text: as §2

Matricaria inodora = assay: Pre-emergence herbicidal action; details: 1280 g/ha, scored visually after about 3 weeks vs untreated controls
From the text: as §2

Polygonum convolvulus [11] = assay: Pre-emergence herbicidal action; details: 1280 g/ha, scored visually after about 3 weeks vs untreated controls
From the text: as §2

Veronica persica [12] = assay: Pre-emergence herbicidal action; details: 1280 g/ha, scored visually after about 3 weeks vs untreated controls
From the text: as §2

Viola tricolor [13] = assay: Pre-emergence herbicidal action; details: 1280 g/ha, scored visually after about 3 weeks vs untreated controls
From the text: as §2

Alopecurus myosuroides [14] = assay: Pre-emergence herbicidal action; details: 1280 g/ha, scored visually after about 3 weeks vs untreated controls
From the text: as §2

Stellaria media [15] = assay: Post-emergence herbicidal action; details: 1280 g/ha, rated visually after about 3 weeks vs untreated controls
Method: as §1

Amaranthus retroflexus [16] = assay: Post-emergence herbicidal action; details: 1280 g/ha, rated visually after about 3 weeks vs untreated controls
Method: as §1

Pharbitis purpurea = assay: Post-emergence herbicidal action; details: 1280 g/ha, rated visually after about 3 weeks vs untreated controls
Method: as §1

Setaria viridis [17] = assay: Post-emergence herbicidal action; details: 1280 g/ha, rated visually after about 3 weeks vs untreated controls
Method: as §1

Avena fatua = assay: Pre-emergence herbicidal action; details: 1280 g/ha, scored visually after about 3 weeks vs untreated controls
From the text: as §2

Lolium rigidum = assay: Pre-emergence herbicidal action; details: 1280 g/ha, scored visually after about 3 weeks vs untreated controls
From the text: as §2

Veronica persica [18] = assay: Post-emergence herbicidal action; details: 1280 g/ha, rated visually after about 3 weeks vs untreated controls
Method: as §1

Row | SMILES | herbicidal activity on Echinochloa crus-galli (Echinochloa crus-galli [1]) [%] | herbicidal activity on Abutilon theophrasti (Abutilon theophrasti [2]) [%] | herbicidal activity on Polygonum convolvulus (Polygonum convolvulus [3]) [%] | herbicidal activity on Viola tricolor (Viola tricolor [4]) [%] | herbicidal activity on Alopecurus myosuroides (Alopecurus myosuroides [5]) [%] | herbicidal activity on Stellaria media (Stellaria media [6]) [%] | herbicidal activity on Amaranthus retroflexus (Amaranthus retroflexus [7]) [%] | herbicidal activity on Echinochloa crus-galli (Echinochloa crus-galli [8]) [%] | herbicidal activity on Abutilon theophrasti (Abutilon theophrasti [9]) [%] | herbicidal activity on Hordeum murinum (Hordeum murinum) [%] | herbicidal activity on Setaria viridis (Setaria viridis [10]) [%] | herbicidal activity on Matricaria inodora (Matricaria inodora) [%] | herbicidal activity on Polygonum convolvulus (Polygonum convolvulus [11]) [%] | herbicidal activity on Veronica persica (Veronica persica [12]) [%] | herbicidal activity on Viola tricolor (Viola tricolor [13]) [%] | herbicidal activity on Alopecurus myosuroides (Alopecurus myosuroides [14]) [%] | herbicidal activity on Amaranthus retroflexus (Amaranthus retroflexus [16]) [%] | herbicidal activity on Pharbitis purpurea (Pharbitis purpurea) [%] | herbicidal activity on Setaria viridis (Setaria viridis [17]) [%] | herbicidal activity on Lolium rigidum (Lolium rigidum) [%] | further results
1 | Fc1cnc(Oc2nn3c(c2Sc2ccc(F)cc2F)CCOCC3)nc1 [Example I-192] | 80 | 80 | 100 | 80 | 80 | 90 | 80 | 100 | 100 | 90 | 100 | 100 | 100 | 100 | 100 | 100 | – | – | – | – | –
2 | Cc1c(Sc2cccc(F)c2)c(Oc2ncccn2)nn1C [Example I-092] | 100 | 100 | 100 | 100 | 90 | 90 | 100 | 100 | 100 | 100 | 100 | 100 | 90 | 100 | 90 | 100 | 100 | 80 | 100 | 100 | herbicidal activity on Stellaria media (Stellaria media [15]): 100%; herbicidal activity on Avena fatua (Avena fatua): 90%
3 | CC(C)n1cc(Sc2ccc(F)cc2)c(Oc2ncc(Cl)cn2)n1 [Example I-137] | – | – | – | 100 | – | 100 | 100 | – | – | – | 100 | – | 100 | – | 100 | – | 80 | – | – | – | herbicidal activity on Veronica persica (Veronica persica [18]): 90%
4 | Cc1c(Sc2ccc(F)cc2F)c(Oc2ncccn2)nn1C [Example I-044, 2-[4-(2,4-Difluorophenyl)sulfanyl-1,5-dimethylpyrazol-3-yl]oxypyrimidine] | 100 | 100 | 100 | 100 | 90 | 100 | 100 | 100 | 100 | 90 | 100 | 100 | 90 | 100 | 100 | 100 | 100 | 100 | 100 | 90 | herbicidal activity on Stellaria media (Stellaria media [15]): 100%; herbicidal activity on Avena fatua (Avena fatua): 100%
5 | COc1cnc(Oc2nn(C)c(C)c2Sc2cccc(Cl)c2)nc1 [Example I-134] | 80 | 90 | 80 | 100 | 90 | 100 | 100 | 90 | 100 | 90 | 100 | 100 | 100 | 100 | 100 | 100 | 100 | 80 | – | 100 | herbicidal activity on Avena fatua (Avena fatua): 80%
6 | Cc1c(Sc2cccc(Cl)c2)c(Oc2ncc(F)cn2)nn1C [Example I-091] | 80 | 80 | – | 100 | 80 | 100 | 100 | 100 | 100 | 100 | 100 | 100 | 100 | 100 | 100 | 100 | 80 | 80 | 100 | 90 | herbicidal activity on Avena fatua (Avena fatua): 90%
7 | Cn1cc(Sc2ccc(Cl)cc2)c(Oc2ncc(Cl)cn2)n1 [Example I-188] | – | – | – | – | – | 90 | 100 | 80 | – | – | 100 | – | – | – | 100 | – | 100 | – | – | – | herbicidal activity on Veronica persica (Veronica persica [18]): 100%
8 | Cc1c(Sc2ccc(F)cc2)c(Oc2ncc(F)cn2)nn1C [Example I-090] | 80 | 100 | 100 | 100 | 100 | 100 | 100 | 100 | 100 | 100 | 100 | 100 | 90 | 100 | 100 | 100 | 100 | – | 100 | 90 | herbicidal activity on Stellaria media (Stellaria media [15]): 100%; herbicidal activity on Avena fatua (Avena fatua): 100%
9 | CCc1c(Sc2ccc(F)c(F)c2)c(Oc2ncc(F)cn2)nn1C [Example I-037] | – | 90 | 80 | 100 | – | 100 | 100 | 100 | 100 | 90 | 100 | 90 | 100 | 100 | 100 | 100 | 100 | 100 | 100 | 100 | herbicidal activity on Stellaria media (Stellaria media [15]): 100%
